{
  "source": "patent US8337869B2",
  "about": "“Analgesic cream” (priority 2007, dated 2012)",
  "key": {"PGE2": {"test_system": "PGE2", "assay": "Inhibition of PGE2 production by DPG", "conditions": "concentrations of DPG contained in Theraflex"}, "LTB4": {"test_system": "LTB4", "assay": "Inhibition of LTB4 production by DPG", "conditions": "concentrations of DPG contained in Theraflex"}},
  "data": [
    {"compound": "CC1(C)[C@@H](O[C@H]2O[C@H](C(=O)[O-])[C@@H](O)[C@H](O)[C@H]2O[C@@H]2O[C@H](C(=O)[O-])[C@@H](O)[C@H](O)[C@H]2O)CC[C@]2(C)[C@H]3C(=O)C=C4[C@@H]5C[C@@](C)(C(=O)O)CC[C@]5(C)CC[C@@]4(C)[C@]3(C)CC[C@@H]12.[K+].[K+]", "note": "[DPG, dipotassium glycyrrhizinate]", "values": [
      {"measurement": "inhibition of production of PGE2", "setting": "PGE2", "value": "greater than 50%"},
      {"measurement": "inhibition of production of LTB4", "setting": "LTB4", "value": "greater than 50%"}
    ]}
  ]
}
